US6716857B2, “Tetrahydropyridine derivatives acting on muscarinic acetylcholine receptors” (Korea Institute of Science and Technology, priority 2001, dated 2004)

Legend:
[1] = biological target: T1, human recombinant muscarinic receptor subtype 1 (M1) expressed in CHO cells (Homo sapiens, UniProt P11229); assay: [3H]-N-methyl-scopolamine ([3H]-NMS) affinity screening test, M1; details: inhibition of specific [3H]-NMS binding
T1 construct: purchased Biosignal, Canada; host or cells: CHO cells
T1 sequence (P11229 1-460): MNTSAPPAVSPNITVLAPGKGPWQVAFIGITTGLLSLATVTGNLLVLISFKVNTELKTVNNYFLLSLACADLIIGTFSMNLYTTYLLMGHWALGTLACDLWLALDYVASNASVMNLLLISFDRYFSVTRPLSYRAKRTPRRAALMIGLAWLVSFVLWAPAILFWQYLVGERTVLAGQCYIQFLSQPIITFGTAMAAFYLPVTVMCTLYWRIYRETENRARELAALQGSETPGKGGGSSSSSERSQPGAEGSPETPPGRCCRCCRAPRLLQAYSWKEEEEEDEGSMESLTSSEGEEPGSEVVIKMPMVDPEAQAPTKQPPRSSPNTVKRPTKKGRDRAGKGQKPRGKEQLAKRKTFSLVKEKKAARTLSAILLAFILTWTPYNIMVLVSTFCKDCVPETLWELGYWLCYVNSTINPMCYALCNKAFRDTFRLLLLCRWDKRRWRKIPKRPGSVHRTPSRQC
From the text: (§1) [^3H]-N-methyl-scopolamine ([^3H]-NMS) Affinity Screening Test
(§2) In order to exclude the interaction between subtypes, human recombinant muscarinic receptor subtypes 1, 2 and 3 expressed in CHO cells (M1, M2 and M3, Biosignal, Canada) were purchased and used as receptor sources. [^3H]-N-methyl-scopolamine (NEN, NET-636) was used as radioisotope labeled ligands, and atropine was used for the measurement of the non-specific binding ability. About 10 kinds of experimental apparatuses including Liquid Scintillation Counter (MicroBeta 1450 plus), Inotech cell harvester (96-well) were used.
(§3) In order to determine the effect of each compound on M1 and M2 receptors, the compounds were reacted with the receptors using radioisotope labeled ligands. After the reaction, the excess unbound ligands were removed by filtering with a glass fiber filter.
The freeze-stored receptors at −70° C. were suspended in test buffer solutions and then the screening test (BioRad protein) was carried out to determine the optimum concentration of the proteins. Thereafter, 50 μL of hot-ligands and 10 μL of test drugs were added to 96-well plate and 100 μL of 50 mM TRIS buffer (pH 7.2) containing 10 mM MgCl2 and 1 mM EDTA was added as a test buffer. The final volume of the reaction was 0.25 mL. The reaction was initiated by adding 100 μL of the diluted receptor suspension, and continued for 60 minutes on a shaking incubator at 27° C. This test was repeated four times. After 60 minutes, the reaction was terminated by adding cold TRIS buffer (0.5 mL, pH 7.4). The excess unbound radioisotopes were removed from the reaction mixture using Inotech cell harvester system. After washing the mixture, the radioactivity detected by the filter mat was measured using Liquid Scintillation Counter. As primary stage of the efficacy screening, the drugs at two concentrations (1 μM, 10 μM) were screened for their affinity for the receptors. […] Finally, IC50 values were calculated at the gradient of 10 concentrations. The test drugs were diluted sequentially for the required concentrations by dissolving them in dimethylsulfoxide (DMSO). […] From the saturation affinity screening test, Kd and Bmax values, and IC50 or Ki values of each test drugs were calculated by observing the non-linear regression using prism (Graphpad software Inc.,USA).
(§4) In the equilibrium affinity screening test, [^3H]-N-methyl-scopolamines at the gradient of 12 concentrations were used for the measurement of the binding ability (IC50). In the competition screening test, 1 nM of [^3H]-N-methyl-scopolamines, and the reference drugs at the gradient of 10 concentrations were used for the measurement. 4-DAMP-methyliodide, Pirenzepine, p-F-hexahydro-sila-defenidol, Methoctramine, and the like were used as reference drugs.

[2] = tested on: Oxo-M binding receptor of muscarinic receptors (rat forebrain synapse membranes); assay: [3H]-oxotremorine-M ([3H]-Oxo-M) affinity screening test; details: ratio IC50 NMS / IC50 Oxo-M; >180 full agonist, 14 to 130 partial agonist, 0.2 to 1.9 antagonist
From the text: (§5) [^3H]-oxotremorine-M ([^3H]-Oxo-M) Affinity Screening Test
(§6) The experimental principle was the same as [^3H]-NMS affinity screening test. […] The functions of the compounds may be determined by carrying out both of [^3H]-NMS and [^3H]-Oxo-M (oxotremorine) affinity screening tests to measure their respective IC50 values and calculating ratios (NMS/Oxo-M) of the measured IC50 values.
(§7) Synapse membranes for binding assay of Oxo-M binding receptor of muscarinic receptors were directly prepared and used in the laboratory as follows: male Sparague-Dawley rats (supplied from Laboratory Animal Center of Korea Research Institute of Chemical Technology, 250 to 300 g) were sacrificed by decapitation. The brain tissues were immediately removed from and the forebrain was obtained, which was sectioned into small pieces. After adding 10-fold amount of ice-cooled solution of sucrose (0.32M), the sectioned forebrain was homogenized using Teflon-glass homogenizer (Contorque, Eberbach) at 10 strokes and 500 rpm, centrifuged at 1000 g for 15 minutes, and then the supernatant was again centrifuged at 17000 g for 20 minutes. The pellet was stored at −20° C. and then used.
(§8) Before the pellet was used at this assay, it was suspended in 10 mL of 20 mM HEPES buffer (pH 7.4), again centrifuged at 17000 g for 15 minutes and then washed. Finally, the washed membrane was diluted in ice-cooled 20 mM HEPES buffer (pH 7.4) to the final concentration of 1:100 (wet wt/v) and used at this assay. All test samples were tested four times, and 20 mM HEPES buffer (pH 7.4) was used as a buffer for screening test. The final volume of reaction was 1 mL, and 24-well plate (costar 24-well) was used. 50 μL of hot-ligand (Oxo-M 5 nM) and 10 μL of test drugs were included therein, and the reaction was initiated by adding 750 μL of synapse membrane and continued at 30° C. for 40 minutes on the shaking incubator. 2 μM atropine was used for non-specific binding in all tests. After completion of the reaction, the receptor binding ligands and non-binding ligands were separated by using Inotech cell harvester (24-channels, Inotech, Switzerland) and filtering under reduced pressure (10×ice-cooled saline) with Wallac GF/C filter (pre-immersed in 0.05% polyethylene imine). The radioactivity of the receptor binding ligands was detected by Liquid Scintillation Counter (MicroBeta Plus, Wallac, Finland).
(§9) The test drugs were diluted sequentially for the required concentrations by dissolving them in dimethylsulfoxide (DMSO) and used in the test. […] From the saturated affinity screening test, Kd and Bmax values, and IC50 or Ki values of respective test drugs were calculated by observing the non-linear regression using prism (Graphpad software Inc., USA). The saturated affinity screening test was carried out in the range of 0.1 to 10 nM of [^3H]-Oxo-M ligand as described above.

[3] = tested on: T2, Oxo-M binding receptor of muscarinic receptors (rat forebrain synapse membranes); assay: as above; details: inhibition of specific [3H]-Oxo-M binding, under head M1; for M1 Oxo-M (1 μM) inhibition: compound at 1 μM
T2 construct: under head M1
From the text: as §5, §6, §7, §8, §9

[4] = biological target: T3, human recombinant muscarinic receptor subtype 2 (M2) expressed in CHO cells (Homo sapiens, UniProt P08172); assay: [3H]-N-methyl-scopolamine ([3H]-NMS) affinity screening test, M2; details: inhibition of specific [3H]-NMS binding, compound at 1 μM
T3 construct: purchased Biosignal, Canada; host or cells: CHO cells
T3 sequence (P08172 1-466): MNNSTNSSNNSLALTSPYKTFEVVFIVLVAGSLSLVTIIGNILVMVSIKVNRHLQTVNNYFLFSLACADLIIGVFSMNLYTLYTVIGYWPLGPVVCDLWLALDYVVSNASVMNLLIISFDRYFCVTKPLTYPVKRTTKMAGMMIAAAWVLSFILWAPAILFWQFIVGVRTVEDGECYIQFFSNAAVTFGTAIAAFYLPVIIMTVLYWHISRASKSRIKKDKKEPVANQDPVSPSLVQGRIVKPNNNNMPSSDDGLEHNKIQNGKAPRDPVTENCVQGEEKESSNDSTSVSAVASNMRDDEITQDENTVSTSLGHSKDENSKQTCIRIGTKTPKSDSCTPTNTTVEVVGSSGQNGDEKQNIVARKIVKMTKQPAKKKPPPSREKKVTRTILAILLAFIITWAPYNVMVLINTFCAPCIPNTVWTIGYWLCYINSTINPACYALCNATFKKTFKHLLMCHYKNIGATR
From the text: as §1, §2
as §3, with “filter. The amount of radioisotopes remaining on the washed filter plate was then measured to quantify the binding reaction between the receptors and the ligands and, from the result, the affinity of the drugs for the receptors was determined.” for “filter.”
The freeze-stored receptors at −70° C. were suspended in test buffer solutions and then the screening test (BioRad protein) was carried out to determine the optimum concentration of the proteins. Thereafter, 50 μL of hot-ligands and 10 μL of test drugs were added to 96-well plate and 100 μL of 50 mM TRIS buffer (pH 7.2) containing 10 mM MgCl2 and 1 mM EDTA was added as a test buffer. The final volume of the reaction was 0.25 mL. The reaction was initiated by adding 100 μL of the diluted receptor suspension, and continued for 60 minutes on a shaking incubator at 27° C. This test was repeated four times. After 60 minutes, the reaction was terminated by adding cold TRIS buffer (0.5 mL, pH 7.4). The excess unbound radioisotopes were removed from the reaction mixture using Inotech cell harvester system. After washing the mixture, the radioactivity detected by the filter mat was measured using Liquid Scintillation Counter. As primary stage of the efficacy screening, the drugs at two concentrations (1 μM, 10 μM) were screened for their affinity for the receptors. As secondary stage, drugs showing remarkable efficacies were determined at the lower concentrations. Finally, IC50 values were calculated at the gradient of 10 concentrations. The test drugs were diluted sequentially for the required concentrations by dissolving them in dimethylsulfoxide (DMSO). […] From the saturation affinity screening test, Kd and Bmax values, and IC50 or Ki values of each test drugs were calculated by observing the non-linear regression using prism (Graphpad software Inc.,USA).
as §4

Row | Structure (SMILES) | IC50 [1] [nM] | inhibition at 10 µM ([1]; compound at 10 μM) [%] | NMS/Oxo-M (ratio of IC50 values) [2] | M1 Oxo-M (1 μM) inhibition [3] [%] | IC50 [3] [nM] | inhibition at 1 µM [4] [%] | M1 NMS (10 μM) inhibition ([1]; compound at 10 μM) [%] | M2 NMS (1 μM) inhibition [4] [%]
1 | CN1CCC=C(C(CN2CCCC2=O)=NOCc2ccccc2)C1 (mixture of isomers) [Example 29, 1-[2-benzyloxyimino-2-(1-methyl-1,2,5,6-tetrahydro-pyridin-3-yl)-ethyl]-pyrrolidin-2-one] | 79200 | 0 | 486 | 78.4 | 163 | 0 |  | 
2 | COC(=O)C1=CCCN(C)C1 [Arecoline, reference compound] |  |  |  | 85.5 | 140 |  |  | 
3 | CN1CCC=C(C(CCN2CCCC2=O)=NO)C1 [Example 16, 1-[3-hydroxyimino-3-(1-methyl-1,2,5,6-tetrahydro-pyridin-3-yl)-propyl]-pyrrolidin-2-one] | 17400 | 39.5 | 236 | 92.4 | 74 | 22.6 |  | 
4 | C#CCON=C(CCN1CCCC1=O)C1=CCCN(C)C1 [Example 18, 1-[3-(1-methyl-1,2,5,6-tetrahydro-pyridin-3-yl)-3-propyn-2-yloxyimino-propyl]-pyrrolidin-2-one] | 13400 | 42.9 | 35 | 75.3 | 381 | 26.8 |  | 
5 | C#CCON=C(CN1CCCC1=O)c1cccnc1 [Example 24, 1-(2-propyn-2-yloxyimino-2-pyridin-3-yl-ethyl)-pyrrolidin-2-one] |  |  | 306 | 58.0 | 327 |  | 0 | 0
6 | CN1CCC=C(C(CN2CCCC2=O)=NO)C1 [Example 26, 1-[2-hydroxyimino-2-(1-methyl-1,2,5,6-tetrahydro-pyridin-3-yl)-ethyl]-pyrrolidin-2-one] | 3630 | 87.6 | 4078 | 96.9 | 0.89 | 94.1 |  | 
7 | CN1CCC=C(C#CCN2CCCC2=O)C1 [Example 30, 1-[3-(1-methyl-1,2,5,6-tetrahydro-pyridin-3-yl)-propyn-2-yl]-pyrrolidin-2-one] | 10800 | 58.5 | 774 | 96.6 | 14 | 42.3 |  | 
